Test results as given in ChEMBL document CHEMBL4673219, “Novel 5,6-disubstituted pyrrolo[2,3-d]pyrimidine derivatives as broad spectrum antiproliferative agents: Synthesis, cell based assays, kinase profile and molecular docking study” (Bioorg Med Chem, 2018).
Where “and” joins values, the source holds several entries; their conditions need not be identical. Identical values can stand only once.

Legend:
[1] = system: SNB-75; experiment: Growth inhibition of human SNB-75 cells assessed as growth percentage at 0.01 uM incubated for 48 hrs by sulforhodamine B assay relative to control; type: functional; details: read-out: Activity
[2] = system: HOP-92; experiment: Growth inhibition of human HOP-92 cells assessed as growth percentage at 10 uM incubated for 48 hrs by sulforhodamine B assay relative to control; type: functional; details: read-out: Activity
[3] = system: RPMI-8226; experiment: Growth inhibition of human RPMI-8226 cells incubated for 48 hrs by sulforhodamine B assay; type: functional
[4] = biological target: High affinity nerve growth factor receptor (Homo sapiens, UniProt P04629); experiment: Inhibition of human Trk-A using myelin basic protein as substrate incubated for 40 mins in presence of [gamma33P]ATP by scintillation counting method
High affinity nerve growth factor receptor, sequence (P04629 whole entry): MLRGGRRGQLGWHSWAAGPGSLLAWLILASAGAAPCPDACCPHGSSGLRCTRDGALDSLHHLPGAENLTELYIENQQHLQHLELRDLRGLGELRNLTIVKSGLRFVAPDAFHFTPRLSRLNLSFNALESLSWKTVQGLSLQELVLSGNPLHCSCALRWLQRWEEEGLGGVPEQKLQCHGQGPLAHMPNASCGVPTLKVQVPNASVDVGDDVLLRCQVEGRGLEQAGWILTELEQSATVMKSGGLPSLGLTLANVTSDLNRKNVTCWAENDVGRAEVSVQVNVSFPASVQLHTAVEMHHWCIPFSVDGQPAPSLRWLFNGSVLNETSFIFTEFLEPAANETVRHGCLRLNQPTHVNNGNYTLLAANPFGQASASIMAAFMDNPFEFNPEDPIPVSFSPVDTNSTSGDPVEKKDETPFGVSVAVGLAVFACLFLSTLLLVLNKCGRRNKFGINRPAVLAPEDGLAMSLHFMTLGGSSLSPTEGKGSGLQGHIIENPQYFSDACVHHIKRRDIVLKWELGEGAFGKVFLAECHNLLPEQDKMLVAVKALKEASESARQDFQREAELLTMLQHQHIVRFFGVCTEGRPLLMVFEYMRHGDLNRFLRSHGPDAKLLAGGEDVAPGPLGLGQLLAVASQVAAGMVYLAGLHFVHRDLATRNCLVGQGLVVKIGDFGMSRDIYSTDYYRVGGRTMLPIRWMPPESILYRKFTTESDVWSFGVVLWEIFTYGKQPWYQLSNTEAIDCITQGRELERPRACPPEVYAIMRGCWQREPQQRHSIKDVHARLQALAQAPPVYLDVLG

[5] = system: M14; experiment: Growth inhibition of human M14 cells assessed as growth percentage at 0.1 uM incubated for 48 hrs by sulforhodamine B assay relative to control; type: functional; details: read-out: Activity
[6] = system: OVCAR-8; experiment: Growth inhibition of human OVCAR-8 cells incubated for 48 hrs by sulforhodamine B assay; type: functional; details: for CC50: read-out: LC50 (the source's name)
[7] = system: SK-MEL-5; experiment: Growth inhibition of human SK-MEL-5 cells assessed as growth percentage at 0.1 uM incubated for 48 hrs by sulforhodamine B assay relative to control; type: functional; details: read-out: Activity
[8] = system: OVCAR-8; experiment: Growth inhibition of human OVCAR-8 cells assessed as growth percentage at 0.01 uM incubated for 48 hrs by sulforhodamine B assay relative to control; type: functional; details: read-out: Activity
[9] = system: K562; experiment: Growth inhibition of human K562 cells assessed as growth percentage at 100 uM incubated for 48 hrs by sulforhodamine B assay relative to control; type: functional; details: read-out: Activity
[10] = system: 786-0; experiment: Growth inhibition of human 786-0 cells assessed as growth percentage at 100 uM incubated for 48 hrs by sulforhodamine B assay relative to control; type: functional; details: read-out: Activity
[11] = system: HCT-116; experiment: Growth inhibition of human HCT-116 cells incubated for 48 hrs by sulforhodamine B assay; type: functional; details: for CC50: read-out: LC50 (the source's name)
[12] = system: NCI-H460; experiment: Growth inhibition of human NCI-H460 cells incubated for 48 hrs by sulforhodamine B assay; type: functional
[13] = system: OVCAR-3; experiment: Growth inhibition of human OVCAR-3 cells assessed as growth percentage at 0.01 uM incubated for 48 hrs by sulforhodamine B assay relative to control; type: functional; details: read-out: Activity
[14] = system: HCC 2998; experiment: Growth inhibition of human HCC 2998 cells assessed as growth percentage at 10 uM incubated for 48 hrs by sulforhodamine B assay relative to control; type: functional; details: read-out: Activity
[15] = system: RPMI-8226; experiment: Growth inhibition of human RPMI-8226 cells assessed as growth percentage at 0.1 uM incubated for 48 hrs by sulforhodamine B assay relative to control; type: functional; details: read-out: Activity
[16] = system: SW-620; experiment: Growth inhibition of human SW-620 cells assessed as growth percentage at 10 uM incubated for 48 hrs by sulforhodamine B assay relative to control; type: functional; details: read-out: Activity
[17] = system: NCI-H522; experiment: Growth inhibition of human NCI-H522 cells assessed as growth percentage at 1 uM incubated for 48 hrs by sulforhodamine B assay relative to control; type: functional; details: read-out: Activity
[18] = system: MCF7; experiment: Growth inhibition of human MCF7 cells assessed as growth percentage at 1 uM incubated for 48 hrs by sulforhodamine B assay relative to control; type: functional; details: read-out: Activity
[19] = system: Malme-3M; experiment: Growth inhibition of human Malme-3M cells assessed as growth percentage at 10 uM incubated for 48 hrs by sulforhodamine B assay relative to control; type: functional; details: read-out: Activity
[20] = system: T47D; experiment: Growth inhibition of human T47D cells assessed as growth percentage at 0.01 uM incubated for 48 hrs by sulforhodamine B assay relative to control; type: functional; details: read-out: Activity
[21] = system: SF-295; experiment: Growth inhibition of human SF-295 cells assessed as growth percentage at 1 uM incubated for 48 hrs by sulforhodamine B assay relative to control; type: functional; details: read-out: Activity
[22] = system: HCT-15; experiment: Growth inhibition of human HCT-15 cells assessed as growth percentage at 1 uM incubated for 48 hrs by sulforhodamine B assay relative to control; type: functional; details: read-out: Activity
[23] = system: T47D; experiment: Growth inhibition of human T47D cells incubated for 48 hrs by sulforhodamine B assay; type: functional; details: for GI50: 48 h
[24] = system: SF-268; experiment: Growth inhibition of human SF-268 cells assessed as growth percentage at 0.1 uM incubated for 48 hrs by sulforhodamine B assay relative to control; type: functional; details: read-out: Activity
[25] = system: PC-3; experiment: Growth inhibition of human PC-3 cells assessed as growth percentage at 1 uM incubated for 48 hrs by sulforhodamine B assay relative to control; type: functional; details: read-out: Activity
[26] = system: PC-3; experiment: Growth inhibition of human PC-3 cells assessed as growth percentage at 0.01 uM incubated for 48 hrs by sulforhodamine B assay relative to control; type: functional; details: read-out: Activity
[27] = system: SF-268; experiment: Growth inhibition of human SF-268 cells assessed as growth percentage at 1 uM incubated for 48 hrs by sulforhodamine B assay relative to control; type: functional; details: read-out: Activity
[28] = system: SN12C; experiment: Growth inhibition of human SN12C cells incubated for 48 hrs by sulforhodamine B assay; type: functional
[29] = system: RXF 393; experiment: Growth inhibition of human RXF 393 cells incubated for 48 hrs by sulforhodamine B assay; type: functional
[30] = system: HCC 2998; experiment: Growth inhibition of human HCC 2998 cells assessed as growth percentage at 1 uM incubated for 48 hrs by sulforhodamine B assay relative to control; type: functional; details: read-out: Activity
[31] = system: SN12C; experiment: Growth inhibition of human SN12C cells assessed as growth percentage at 1 uM incubated for 48 hrs by sulforhodamine B assay relative to control; type: functional; details: read-out: Activity
[32] = system: HCC 2998; experiment: Growth inhibition of human HCC 2998 cells assessed as growth percentage at 0.1 uM incubated for 48 hrs by sulforhodamine B assay relative to control; type: functional; details: read-out: Activity
[33] = system: Malme-3M; experiment: Growth inhibition of human Malme-3M cells assessed as growth percentage at 0.01 uM incubated for 48 hrs by sulforhodamine B assay relative to control; type: functional; details: read-out: Activity
[34] = system: UACC-62; experiment: Growth inhibition of human UACC-62 cells assessed as growth percentage at 10 uM incubated for 48 hrs by sulforhodamine B assay relative to control; type: functional; details: read-out: Activity
[35] = system: NCI-H460; experiment: Growth inhibition of human NCI-H460 cells assessed as growth percentage at 100 uM incubated for 48 hrs by sulforhodamine B assay relative to control; type: functional; details: read-out: Activity
[36] = system: TK-10; experiment: Growth inhibition of human TK-10 cells assessed as growth percentage at 1 uM incubated for 48 hrs by sulforhodamine B assay relative to control; type: functional; details: read-out: Activity
[37] = system: TK-10; experiment: Growth inhibition of human TK-10 cells assessed as growth percentage at 100 uM incubated for 48 hrs by sulforhodamine B assay relative to control; type: functional; details: read-out: Activity
[38] = system: OVCAR-4; experiment: Growth inhibition of human OVCAR-4 cells assessed as growth percentage at 0.01 uM incubated for 48 hrs by sulforhodamine B assay relative to control; type: functional; details: read-out: Activity

Nc1nc2[nH]c(CN3CCN(c4cc(Cl)cc(Cl)c4)CC3)c(CN3CCN(c4cc(Cl)cc(Cl)c4)CC3)c2c(=O)[nH]1
growth at 0.01 µM [1]: 81% | growth at 10 µM [2]: 66.2% | TGI ([3]; Homo sapiens, RPMI-8226): 6920 nM | GI50 ([3]; Homo sapiens, RPMI-8226, 48 h): 2410 nM | IC50 [4]: 12400 nM | growth at 0.1 µM [5]: 98% | GI50 ([6]; Homo sapiens, OVCAR-8, 48 h): 2050 nM | TGI ([6]; Homo sapiens, OVCAR-8, 48 h): 4480 nM | growth at 0.1 µM [7]: 98% | growth at 0.01 µM [8]: 100% | growth at 100 µM [9]: 3% | growth at 100 µM [10]: -41% | GI50 ([11]; Homo sapiens, HCT-116, 48 h): 1630 nM | TGI ([11]; Homo sapiens, HCT-116, 48 h): 3170 nM | CC50 ([11]; Homo sapiens, HCT-116, 48 h): 6180 nM | TGI ([12]; Homo sapiens, NCI-H460): 3940 nM | GI50 ([12]; Homo sapiens, NCI-H460, 48 h): 1960 nM | growth at 0.01 µM [13]: 105% | growth at 10 µM [14]: 24% | growth at 0.1 µM [15]: 102% | growth at 10 µM [16]: -16.3% | growth at 1 µM [17]: 91% | growth at 1 µM [18]: 79% | growth at 10 µM [19]: 74.3% | growth at 0.01 µM [20]: 91% | growth at 1 µM [21]: 89% | growth at 1 µM [22]: 94% | TGI ([23]; Homo sapiens, T47D): 4020 nM | GI50 ([23]; Homo sapiens, T47D): 1780 nM | growth at 0.1 µM [24]: 102% | growth at 1 µM [25]: 86% | growth at 0.01 µM [26]: 97% | growth at 1 µM [27]: 94% | GI50 [28]: 1910 nM | TGI [28]: 3910 nM | GI50 [29]: 1580 nM | TGI [29]: 3070 nM | growth at 1 µM [30]: 93% | growth at 1 µM [31]: 95% | growth at 0.1 µM [32]: 99% | growth at 0.01 µM [33]: 95% | growth at 10 µM [34]: 77.8% | growth at 100 µM [35]: -58% | growth at 1 µM [36]: 100% | growth at 100 µM [37]: -69% | growth at 0.01 µM [38]: 95%

CCCCCCCC(=O)Nc1nc2[nH]c(CN3CCN(Cc4cccc(F)c4)CC3)c(CN3CCN(Cc4cccc(F)c4)CC3)c2c(=O)[nH]1
growth at 0.01 µM [1]: 93% | growth at 10 µM [2]: -7.31% | GI50 ([3]; 48 h): 360 nM | LC50 ([3]; 48 h): 100000 nM and > 1000 nM | GI50 ([3]; Homo sapiens, RPMI-8226, 48 h): 363 nM | IC50 [4]: 2250 nM | growth at 0.1 µM [5]: 94% | GI50 ([6]; 48 h): 210 nM | TGI ([6]; 48 h): 410 nM | CC50 ([6]; 48 h): 800 nM | GI50 ([6]; Homo sapiens, OVCAR-8, 48 h): 205 nM | TGI ([6]; Homo sapiens, OVCAR-8, 48 h): 405 nM | CC50 ([6]; Homo sapiens, OVCAR-8, 48 h): 801 nM | growth at 0.1 µM [7]: 101% | growth at 0.01 µM [8]: 102% | growth at 100 µM [9]: -1% | growth at 100 µM [10]: -95% | GI50 ([11]; 48 h): 170 nM | TGI ([11]; 48 h): 320 nM | CC50 ([11]; 48 h): 600 nM | GI50 ([11]; Homo sapiens, HCT-116, 48 h): 171 nM | TGI ([11]; Homo sapiens, HCT-116, 48 h): 321 nM | CC50 ([11]; Homo sapiens, HCT-116, 48 h): 601 nM | GI50 ([12]; 48 h): 380 nM | LC50 ([12]; Homo sapiens, NCI-H460): 4310 nM | TGI ([12]; Homo sapiens, NCI-H460): 1300 nM | GI50 ([12]; Homo sapiens, NCI-H460, 48 h): 383 nM | growth at 0.01 µM [13]: 100% | growth at 10 µM [14]: -81.8% | growth at 0.1 µM [15]: 97% | growth at 10 µM [16]: -78.5% | growth at 1 µM [17]: 100% | growth at 1 µM [18]: -51% | growth at 10 µM [19]: -83.1% | growth at 0.01 µM [20]: 95% | growth at 1 µM [21]: 74% | growth at 1 µM [22]: 1% | GI50 [23]: 160 nM and 1600 nM | TGI ([23]; Homo sapiens, T47D): 3470 nM | CC50 ([23]; Homo sapiens, T47D, read-out: LC50 (the source's name)): 7530 nM | growth at 0.1 µM [24]: 95% | growth at 1 µM [25]: 68% | growth at 0.01 µM [26]: 98% | growth at 1 µM [27]: 65% | GI50 [28]: 1480 nM | LC50 [28]: 6850 nM | TGI [28]: 3180 nM | GI50 [29]: 510 nM | LC50 (concentration killing 50% of cells) [29]: 4450 nM | TGI [29]: 1740 nM | growth at 1 µM [30]: -33% | growth at 1 µM [31]: 76% | growth at 0.1 µM [32]: 104% | growth at 0.01 µM [33]: 98% | growth at 10 µM [34]: -93.9% | growth at 100 µM [35]: -85% | growth at 1 µM [36]: 94% | growth at 100 µM [37]: -91% | growth at 0.01 µM [38]: 98%
